In patent US20050025727A1, “Natural sunlight photostable composition” (priority 2003, published 2005):

Assay: Photostability in natural sunlight: residual sunscreen active by HPLC, 2 mg/cm^2 film on microscope slides
Type: physicochemical
Conditions: for Residual Octisalate, Residual %: natural sunlight as in Example 1, formula not named (context: Formula 5)
Description: As described above, a sunscreen composition of SPF X is considered to be “photostable” when at least 70%, preferably at least 75%, more preferably at least 80% of each sunscreen active in the composition remains after exposure of the composition to Y SEDS of natural sunlight, where Y is about ½ X. “Photostability” is assessed by (i) assaying the pre-UVR exposure concentration of each sunscreen active present in the sunscreen composition by high-performance liquid chromatography (“HPLC”); (ii) applying a sample of the sunscreen composition at a concentration of 2 mg/cm^2 (a standard concentration used in SPF testing) to a non-coated microscope slide or similar non-reactive surface (e.g., glass or quartz plate); (iii) irradiating the sample in natural sunlight according to a dosing regimen as illustrated in Table 1; (iv) assaying the concentration of each sunscreen active post-UVR exposure. More specifically, after the desired UVR exposure, each slide is removed from sunlight and placed in a sealed Blue Max™ polypropylene conical tube (Becton Dickinson) or similar container, and stored in an area to prevent further exposure to natural sunlight. When an irradiation series is completed, the residual content of each sunscreen active is determined via HPLC, such as the Perkin Elmer Model 200, equipped with a 785 UVN detector, and a C18 column. A detector wavelength of 310 nm and an eluent solution of […] may be used. The sunscreen composition is extracted from the slide with isopropanol or other suitable solvent and sonicated for a minimum of 10 minutes to completely solubilize the sunscreen actives. The solution is then filtered with a 0.45 um GHP13 mm syringe filter. The above analytical procedure may be modified in a manner that would be obvious to the person of ordinary skill in the art. To compare the photostability of Formulas 1 and 2, a uniform 2 mg/cm^2 film of sunscreen product was placed on multiple microscope slides. The slides were exposed to direct sunlight for time intervals corresponding to 1, 2, 4, 8, and 16 SEDs as measured by a Solar Light PMA 2100 detector. (Unless otherwise indicated, all sunlight exposures were in Ormond Beach, Fla.). Slides were removed from the sun after the desired exposure and stored in Blue Max™ polypropylene conical tubes. Upon completion of the test series, samples were dissolved in a suitable solvent, sonicated and then assayed via HPLC. Unless otherwise indicated, all assays were performed by HPLC with oxybenzone, if present, as the internal standard.

Photostability of octisalate (exposed to natural sunlight as in Example 1): photolabile
Residual Octisalate, Residual % (1 SED): 96%
Residual Octisalate, Residual % (2 SEDs): 100%
Residual Octisalate, Residual % (4 SEDs): 92%
Residual Octisalate, Residual % (8 SEDs): 80%
Residual Octisalate, Residual % (16 SEDs): 55%
Compound: CCCCC(CC)COC(=O)c1ccccc1O (stereo not drawn) [Octisalate]
